Columns and labels:
[1] = known triarylmethane dyes; colour change from lower pH to higher pH; cited from earlier work
[2] = Storage stability of concentrates at elevated temperatures; conditions: pH indicator in agricultural concentrate with carbohydrate acids as pH modifying agent

Row | SMILES | Range of pH colour transition [1] | stability of the pH indicator in the presence of carbohydrate acids / carbohydrate acid mixture [2]
1 | Cc1c(C2(c3cc(Br)c(O)c(Br)c3C)OS(=O)(=O)c3ccccc32)cc(Br)c(O)c1Br [bromocresol green] | pH 3.8-5.4 | –
2 | O=S1(=O)OC(c2cc(Br)c(O)c(Br)c2)(c2cc(Br)c(O)c(Br)c2)c2ccccc21 [bromophenol blue] | pH 3.0-4.6 | –
3 | O=S1(=O)OC(c2ccc(O)c(Cl)c2)(c2ccc(O)c(Cl)c2)c2ccccc21 [chlorophenol red] | pH 4.8-6.7 | low stability
4 | Cc1cc(C2(c3cc(C)c(O)c(Br)c3)OS(=O)(=O)c3ccccc32)cc(Br)c1O [bromocresol purple] | pH 5.2-6.8 | –

— patent publication US9277747B2, “Agricultural composition comprising pH sensitive agricultural chemicals and organic pH buffer” (NUTRIAG LTD., priority 2010, dated 2016)
